Reference: US20220280460A1, “METHODS AND COMPOSITIONS FOR STIMULATING EXOSOME SECRETION” (UNIVERSITY OF PITTSBURGH-OF THE COMMONWEALTH SYSTEM OF …, priority 2019, published 2022)

Key:
[1] = system: UMSCC47 HPV(+) head and neck cancer cells; test: Exosome secretion by UMSCC47 cells; format: cell-based; conditions: for exosome production by UMSCC47 cells: total exosomal protein normalized to 10^6 cells
Procedure: All cell lines were grown at 37° C. in the atmosphere of 5% CO2 in air. Cultures were supplemented with fetal bovine serum (FBS) depleted of exosomes by ultracentrifugation at 100,000×g for 3 h. Cells were cultured in 150 cm^2 cell culture flasks using 25 ml of culture medium. Media used for cell cultures are described in Table 1. Seeding protocol was optimized for each cell type as recently described in Ludwig N., et al., (Exp Cell Res. 2019; 378(2):149-57). After seeding, cells were allowed to attach to the flask for 6 h, were then treated with indicated reagents and incubated for 48 or 72 h as indicated.
Exosome isolation by mini-SEC: Processing of supernatants and exosome isolation by mini-SEC was performed as previously described in Ludwig et al. Briefly, cell culture supernatants were centrifuged at room temperature (RT) for 10 min at 2000×g, were transferred to new tubes for centrifugation at 10,000×g at 4° C. for 30 min and filtrated using a 0.22 μm bacterial filter. Afterwards, aliquots of supernatants were concentrated by using Vivacell 100 concentrators at 2000×g. 1 mL of concentrated supernatant was loaded on a 10 cm-long Sepharose 2-B column and individual 1 mL fractions were collected. Fraction #4 containing non-aggregated exosomes was used in subsequent assays. The established isolation technique fulfils the criteria of the MISEV2018 guidelines and therefore the term ‘exosomes’ is used.
Protein concentration: Protein concentrations were determined by using a BCA protein assay (Pierce Biotechnology, Rockford, Ill., USA) according to the manufacturer's instructions.
Tunable resistive pulse sensing (TRPS): Size distribution and concentrations of the particles in isolated exosome fractions were analyzed using tunable-resistive pulse sensing (TRPS) by qNano (Izon) as described in Ludwig N, et al., Mol Cancer Res. 2018; 16(11):1798-808.

[2] = system: Preglomerular vascular smooth muscle cells (PGVSMCs); test: Exosome production by PGVSMCs from CNPase +/+ and −/− rats; format: cell-based, rat; conditions: 8-Br-2′,3′-cAMP 0.3 μM; IAA/DNP 5 μM
From the text: Isolation of rat CNPASE +/+ and −/− PGVSMCs: 2′,3′-Cyclic nucleotide 3′-phosphodiesterase (CNPase) knockout rats used in this example were generated by the MCW Gene Editing Rat Resource Program. This strain was produced by injecting a CRISPR targeting the sequence […] into rat embryos. The resulting mutation was a 7 base pair deletion in exon 2. Animals were genotyped by PCR. Preglomerular vascular smooth muscle cells (PGVSMCs) were isolated from kidneys of wild type (CNPase +/+) and knockout (CNPase −/−) rats using a previously described method. Cells were cultured at 37° C. in the atmosphere of 5% CO2 in air using DMEM supplemented with exosome-depleted FBS. Exosome isolation was performed as described above.

SMILES | exosome production by UMSCC47 cells [1] | effect on stimulation of exosome production by IAA/DNP ([1]; UMSCC47, in combination with IAA/DNP) | stimulation of exosome production, CNPase −/− versus CNPase +/+ PGVSMCs [2]
Nc1ncnc2c1ncn2[C@@H]1O[C@H](CO)[C@H]2OP(=O)(O)O[C@H]21 [2′,3′-cAMP] | stimulated exosome production, but only at high concentrations | – | –
Nc1ncnc2c1ncn2[C@@H]1O[C@H](CO)[C@@H](O)[C@H]1OP(=O)(O)O [2′-AMP] | did not affect exosome secretion | – | –
CCCn1c(=O)c2[nH]c(-c3ccc(OCC(=O)Nc4ccc(C#N)cc4)cc3)nc2n(CCC)c1=O [MRS 1754] | – | significantly decreased | –
Nc1ncnc2c1ncn2[C@@H]1O[C@H](CO)[C@@H](OP(=O)(O)O)[C@H]1O [3′-AMP] | significantly stimulated exosome release | – | –
Nc1ncnc2c1nc(Br)n2C1OC(CO)C2OP(=O)(O)OC21 (stereo not drawn) [8-Br-2′,3′-cAMP] | concentration-dependent increase in exosome secretion | – | greater in CNPase −/− compared with CNPase +/+ cells
